# Several values for one entry are separate records, joined by “and”; a condition that tells them apart may be missing. Identical values can stand only once. Like-named read-outs stand apart in the source and are kept apart here.
# Columns and labels:
# [1] = tested on: FMR1 RNA (full-length FMR1 and FMR1-217) in FXS1 and FXS2 LCLs; test: 5-AzadC treatment of FXS lymphoblast cell lines, RT-qPCR of full-length FMR1 and FMR1-217 RNA relative to GAPDH; format: cell-based, human; conditions: 1 μM, seven days, RT-qPCR normalized to GAPDH
# Method: One μg of total RNA was primed with oligo(dT)20 to generate cDNA with a QuantiTect cDNA synthesis kit (Qiagen, #205311) using random hexamers. qPCR was performed using the iTaq™ Universal SYBR® Green Supermix (BIO-RAD #1725122) on a QuantStudio 3 qPCR machine in duplicate.
# Lymphoblast cell lines (LCL) were obtained from Coriell Institute from two FXS individuals (GM07365 (FXS1), GM06897 (FXS2)) and two typically developing control males (GM07174 (WT3), GM06890 (WT4)). Cells were cultured in RPMI 1640 medium (Sigma-Aldrich), supplemented with 15% fetal bovine serum (FBS) and 2.5% L-glutamine at 37° C. with 5% CO2 in T25 flasks.
# For each cell culture, 30×10^5 cells/ml were added to a final volume of 20 ml media (RPMI1640 medium (Sigma-Aldrich) supplemented with 15% fetal bovine serum (FBS) and 2.5% L-glutamine at 37° C. with 5% C02) per T25 flask. 5-Aza-2′-deoxycytidine (5-AzadC) (Sigma-Aldrich, A3656) was added to the cell cultures (final concentration 1 μM) for 7 consecutive days. A 2 mM stock of 5-AzadC was made in DMSO. For each cell line, two independent treatments were performed (n=2). For the no treatment controls for each cell line, DMSO was added to the flasks. For samples with both 5-AzadC and ASO treatment, 80 nM or 160 nM ASOs or vehicle were added on Day 1 and either 5-AzadC or DMSO was added each day from Day 2 up to Day 9 at a final concentration of 1 μM. On Day 9 the cells were collected in 1× phosphate buffered saline to proceed with RNA extraction or Western blotting.
# DNA methylation of the CpG island upstream of the FMR1 gene promoter in FXS individuals (MFM, Methylated full mutation) contributes to transcriptional silencing of the locus and loss of FMRP. FMR1 transcription can be reactivated by treatment with the nucleoside analogue 5-AzadC (5-aza-2′-deoxycytidine), which inhibits DNA methylation (Tabolacci et al., 2016b, 2016a). […] Next, FXS1 and FXS2 cell lines were treated with the 5-AzadC and then measured FMR1 RNA and FMRP levels. […]
# FMRP = test: 5-AzadC treatment of FXS lymphoblast cell lines, western blot of FMRP relative to GAPDH; format: cell-based, human; conditions: FXS1 and FXS2 LCLs, 5-AzadC vs DMSO
# Method: For each cell culture, 30×10^5 cells/ml were added to a final volume of 20 ml media (RPMI1640 medium (Sigma-Aldrich) supplemented with 15% fetal bovine serum (FBS) and 2.5% L-glutamine at 37° C. with 5% C02) per T25 flask. 5-Aza-2′-deoxycytidine (5-AzadC) (Sigma-Aldrich, A3656) was added to the cell cultures (final concentration 1 μM) for 7 consecutive days. A 2 mM stock of 5-AzadC was made in DMSO. For each cell line, two independent treatments were performed (n=2). For the no treatment controls for each cell line, DMSO was added to the flasks. […]
# Cells were homogenized at 4° C. in RIPA buffer, with incubation on ice for 10 minutes and dissociation by pipetting. […] Protein concentration was determined using BCA reagent. Proteins ([…]) were diluted in SDS-bromophenol blue reducing buffer with 40 mM DTT and analyzed using western blotting with the following antibodies: FMRP (Millipore, mAb2160, 1:1,000), FMRP (Abcam, ab17722, 1:1,000) and GAPDH (14C10, Cell Signaling Technology, mAb 2118, 1:2,000), diluted in 1× TBST with 5% non-fat milk. […]
# DNA methylation of the CpG island upstream of the FMR1 gene promoter in FXS individuals (MFM, Methylated full mutation) contributes to transcriptional silencing of the locus and loss of FMRP. […] Next, FXS1 and FXS2 cell lines were treated with the 5-AzadC and then measured FMR1 RNA and FMRP levels. […]
# [2] = tested on: FMR1 transcripts (total, FMR1-205, FMR1-217) in FXS-NSC; conditions: FXS iPSC-derived NSCs, re-analyzed from RNA-seq data of Vershkov et al., cited from earlier work
# [3] = FXS1 LCL (GM07365, fully methylated)
structure (smiles),measurement,setting,value
"Nc1ncn([C@H]2C[C@H](O)[C@@H](CO)O2)c(=O)n1 [5-AzadC, 5-Aza-2′-deoxycytidine]",FMR1-217 RNA relative to DMSO-treated cells,[1]; [3],significant increases
same,full-length FMR1 RNA relative to DMSO-treated cells,[1]; [3],significant increases
same,full-length FMR1 and FMR1-217 RNA relative to DMSO-treated cells,"[1]; FXS2 LCL (GM06897, partially methylated)",increase of only full-length FMR1 RNA
same,"FMRP level (FMRP/GAPDH, western blot)",FMRP,In neither cell line did 5-AzadC treatment induce an increase in FMRP
same,FMR1 (Total) reads,[2]; biologic duplicates,9.9 TPM and 6.1 TPM
same,FMR1-217 reads,[2]; biologic duplicates,6.9 TPM and 3.9 TPM
same,"FMR1-217 expression (RNA-seq reads), in words",[2],strong FMR1-217 expression was observed only in the 5-AzadC-treated cells
same,"total FMR1 and FMR1-205 expression (RNA-seq reads), in words",[2],strong total FMR1 and FMR1-205 expression
same,"FMR1-217 expression (RNA-seq reads), in words",[2]; listed as 5-azadC,FMR1-217 reads are detected only in the 5-azadC-treated samples
